According to patent US20240109917A1 (ACTELION PHARMACEUTICALS LTD, priority 2020, published 2024):

What follows are compounds tested against PDGFRβ (Rattus norvegicus (Rat), UniProt Q05030) (assay: PDGFRβ Cellular Assay (PDGFRb P-Y751 HTRF in A10 cells stimulated with PDGF-BB)). Conditions: PDGFR Cellular IC50.
Format: cell-based
In short: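 Rat A10 cells, plated overnight, were treated with compound for 3 hours, then stimulated with PDGF-BB (working stock 100 ng/mL in 10% FBS medium). After lysis, PDGFRβ P-Y751 was detected by HTRF.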

Sequence of PDGFRβ (Q05030 32-1097): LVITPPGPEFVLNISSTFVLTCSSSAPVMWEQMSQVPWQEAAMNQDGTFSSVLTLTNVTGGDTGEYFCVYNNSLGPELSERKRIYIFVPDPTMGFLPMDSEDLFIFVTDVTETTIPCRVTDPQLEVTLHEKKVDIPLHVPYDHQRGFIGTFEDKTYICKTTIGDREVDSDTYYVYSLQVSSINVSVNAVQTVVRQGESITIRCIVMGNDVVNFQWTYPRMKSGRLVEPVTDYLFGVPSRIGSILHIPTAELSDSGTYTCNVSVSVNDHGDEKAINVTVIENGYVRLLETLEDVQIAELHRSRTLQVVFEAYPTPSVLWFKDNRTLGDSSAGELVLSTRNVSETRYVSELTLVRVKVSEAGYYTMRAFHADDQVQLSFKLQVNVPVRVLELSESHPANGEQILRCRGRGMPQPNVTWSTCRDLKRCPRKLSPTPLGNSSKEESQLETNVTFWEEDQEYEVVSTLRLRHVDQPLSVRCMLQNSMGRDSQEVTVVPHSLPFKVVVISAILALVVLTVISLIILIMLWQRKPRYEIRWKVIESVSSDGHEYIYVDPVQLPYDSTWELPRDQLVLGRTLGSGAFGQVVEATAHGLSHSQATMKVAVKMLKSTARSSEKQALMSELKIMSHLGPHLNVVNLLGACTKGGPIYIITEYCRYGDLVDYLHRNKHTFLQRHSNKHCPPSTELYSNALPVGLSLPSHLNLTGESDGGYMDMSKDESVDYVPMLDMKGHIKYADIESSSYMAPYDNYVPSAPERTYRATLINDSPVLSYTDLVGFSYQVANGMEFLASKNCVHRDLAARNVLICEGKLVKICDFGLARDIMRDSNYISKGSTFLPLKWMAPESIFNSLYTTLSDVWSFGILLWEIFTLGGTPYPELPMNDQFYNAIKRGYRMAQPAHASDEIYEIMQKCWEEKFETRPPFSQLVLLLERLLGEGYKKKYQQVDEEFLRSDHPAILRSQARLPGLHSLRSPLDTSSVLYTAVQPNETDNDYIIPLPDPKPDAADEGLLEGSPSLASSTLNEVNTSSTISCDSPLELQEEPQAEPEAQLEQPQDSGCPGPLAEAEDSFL

| SMILES | IC50 |
| --- | --- |
| Cc1ncc(C(=O)NCCN2CC3CCC2CC3)cc1NC(=O)c1cnn2cc(-c3cnn(C(F)F)c3)sc12 [Example 180, N-(5-((2-(2-azabicyclo[2.2.2]octan-2-yl)ethyl)carbamoyl)-2-methylpyridin-3-yl)-2-(1-(difluoromethyl)-1H-pyrazol-4-yl)pyrazolo[5,1-b]thiazole-7-carboxamide] | 38.4 nM |
| Cc1cc(C(=O)NCCN(C)C2CCCC2)sc1NC(=O)c1cnn2cc(-c3cnn(C)c3)sc12 [Example 190, N-(5-((2-(cyclopentyl(methyl)amino)ethyl)carbamoyl)-3-methylthiophen-2-yl)-2-(1-methyl-1H-pyrazol-4-yl)pyrazolo[5,1-b]thiazole-7-carboxamide] | 147 nM |
| Cc1cc(C(=O)NCCN2[C@H](C)CCC[C@@H]2C)sc1NC(=O)c1cnn2cc(-c3cnn(C)c3)sc12 [Example 198, N-(5-((2-((2S,6R)-2,6-dimethylpiperidin-1-yl)ethyl)carbamoyl)-3-methylthiophen-2-yl)-2-(1-methyl-1H-pyrazol-4-yl)pyrazolo[5,1-b]thiazole-7-carboxamide] | 105 nM |

Same assay, conditions: read-out: PDGFR Cellular IC50

| SMILES | IC50 |
| --- | --- |
| Cc1ncc(NC(=O)CCN2CCCC2(C)C)cc1NC(=O)c1cnn2cc(-c3ccn(C)n3)sc12 [Example 12, N-(5-(3-(2,2-dimethylpyrrolidin-1-yl)propanamido)-2-methyl-pyridin-3-yl)-2-(1-methyl-1H-pyrazol-3-yl)pyrazolo[5,1-b]thiazole-7-carboxamide] | 7.7 nM |
| Cc1ncc(NC(=O)CN2CCCC2(C)C)cc1NC(=O)c1cnn2cc(-c3cnn(C)c3)sc12 [Example 13, N-(5-(2-(2,2-dimethylpyrrolidin-1-yl)acetamido)-2-methylpyridin-3-yl)-2-(1-methyl-1H-pyrazol-4-yl)pyrazolo[5,1-b]thiazole-7-carboxamide] | 3.3 nM |
| Cc1ncc(NC(=O)CN2CCC(F)(F)CC2)cc1NC(=O)c1cnn2cc(-c3cnn(C)c3)sc12 [Example 14, N-(5-(2-(4,4-difluoropiperidin-1-yl)acetamido)-2-methylpyridin-3-yl)-2-(1-methyl-1H-pyrazol-4-yl)pyrazolo[5,1-b]thiazole-7-carboxamide] | 4.4 nM |
| Cc1ncc(NC(=O)CN(C)C2CCOCC2)cc1NC(=O)c1cnn2cc(-c3cnn(C)c3)sc12 [Example 15, 2-(1-methyl-1H-pyrazol-4-yl)-N-(2-methyl-5-(2-(methyl(tetrahydro-2H-pyran-4-yl)amino)acetamido)pyridin-3-yl)pyrazolo[5,1-b]thiazole-7-carboxamide] | 15.7 nM |
| Cc1ncc(NC(=O)CN2CCCC23CC3)cc1NC(=O)c1cnn2cc(-c3cnn(C)c3)sc12 [Example 16, N-(5-(2-(4-azaspiro[2.4]heptan-4-yl)acetamido)-2-methylpyridin-3-yl)-2-(1-methyl-1H-pyrazol-4-yl)pyrazolo[5,1-b]thiazole-7-carboxamide] | 4.1 nM |
| Cc1ncc(NC(=O)CN2CCc3cnn(C)c3C2)cc1NC(=O)c1cnn2cc(-c3cnn(C)c3)sc12 [Example 17, 2-(1-methyl-1H-pyrazol-4-yl)-N-(2-methyl-5-(2-(1-methyl-4,5-dihydro-1H-pyrazolo[3,4-c]pyridin-6 (7H)-yl)acetamido)pyridin-3-yl)pyrazolo[5,1-b]thiazole-7-carboxamide] | 69.5 nM |
| Cc1ncc(NC(=O)CN2CCC3(COC3)C2)cc1NC(=O)c1cnn2cc(-c3cnn(C)c3)sc12 [Example 18, N-(5-(2-(2-oxa-6-azaspiro[3.4]octan-6-yl)acetamido)-2-methylpyridin-3-yl)-2-(1-methyl-1H-pyrazol-4-yl)pyrazolo[5,1-b]thiazole-7-carboxamide] | 49.8 nM |
| Cc1ncc(C(=O)NCCN2CC3CCC2CC3)cc1NC(=O)c1cnn2cc(-c3cnn(C4CC4)c3)sc12 [Example 181, N-(5-((2-(2-azabicyclo[2.2.2]octan-2-yl)ethyl)carbamoyl)-2-methylpyridin-3-yl)-2-(1-cyclopropyl-1H-pyrazol-4-yl)pyrazolo[5,1-b]thiazole-7-carboxamide] | 16.1 nM |
| Cc1cc(C(=O)NCCN2CCCC2(C)C)sc1NC(=O)c1cnn2cc(-c3cnn(C)c3)sc12 [Example 182, N-(5-((2-(2,2-dimethylpyrrolidin-1-yl)ethyl)carbamoyl)-3-methylthiophen-2-yl)-2-(1-methyl-1H-pyrazol-4-yl)pyrazolo[5,1-b]thiazole-7-carboxamide] | 1680 nM |
| Cc1cc(C(=O)NCCN2CCC(C)(C)CC2)sc1NC(=O)c1cnn2cc(-c3cnn(C)c3)sc12 [Example 183, N-(5-((2-(4,4-dimethylpiperidin-1-yl)ethyl)carbamoyl)-3-methylthiophen-2-yl)-2-(1-methyl-1H-pyrazol-4-yl)pyrazolo[5,1-b]thiazole-7-carboxamide] | 178 nM |
| Cc1cc(C(=O)NCCN2CCCC2(C)C)sc1NC(=O)c1cnn2cc(-c3ccc(N)nc3)sc12 [Example 184, 2-(6-aminopyridin-3-yl)-N-(5-((2-(2,2-dimethylpyrrolidin-1-yl)ethyl)carbamoyl)-3-methylthiophen-2-yl)pyrazolo[5,1-b]thiazole-7-carboxamide] | 1630 nM |
| Cc1cc(C(=O)NCCN2CCCC2(C)C)sc1NC(=O)c1cnn2cc(-c3cncnc3)sc12 [Example 185, N-(5-((2-(2,2-dimethylpyrrolidin-1-yl)ethyl)carbamoyl)-3-methylthiophen-2-yl)-2-(pyrimidin-5-yl)pyrazolo[5,1-b]thiazole-7-carboxamide] | 42.6 nM |
| Cc1cc(C(=O)NCCN2CCCC2(C)C)sc1NC(=O)c1cnn2cc(-c3cnn(C)n3)sc12 [Example 186, N-(5-((2-(2,2-dimethylpyrrolidin-1-yl)ethyl)carbamoyl)-3-methylthiophen-2-yl)-2-(2-methyl-2H-1,2,3-triazol-4-yl)pyrazolo[5,1-b]thiazole-7-carboxamide] | 593 nM |
| Cc1cc(C(=O)NCCN2CCCC2(C)C)sc1NC(=O)c1cnn2cc(-c3ccncc3)sc12 [Example 187, N-(5-((2-(2,2-dimethylpyrrolidin-1-yl)ethyl)carbamoyl)-3-methylthiophen-2-yl)-2-(pyridin-4-yl)pyrazolo[5,1-b]thiazole-7-carboxamide] | 1020 nM |
| Cc1cc(C(=O)NCCN2CCCC2(C)C)sc1NC(=O)c1cnn2cc(-c3ccn(C)n3)sc12 [Example 188, N-(5-((2-(2,2-dimethylpyrrolidin-1-yl)ethyl)carbamoyl)-3-methylthiophen-2-yl)-2-(1-methyl-1H-pyrazol-3-yl)pyrazolo[5,1-b]thiazole-7-carboxamide] | 347 nM |
| Cc1cc(C(=O)NCCN2CCC(C)(C)C2)sc1NC(=O)c1cnn2cc(-c3cnn(C)c3)sc12 [Example 189, N-(5-((2-(3,3-dimethylpyrrolidin-1-yl)ethyl)carbamoyl)-3-methylthiophen-2-yl)-2-(1-methyl-1H-pyrazol-4-yl)pyrazolo[5,1-b]thiazole-7-carboxamide] | 72.3 nM |
| Cc1cc(C(=O)NCCN2CCC(O)CC2)sc1NC(=O)c1cnn2cc(-c3cnn(C)c3)sc12 [Example 191, N-(5-((2-(4-hydroxypiperidin-1-yl)ethyl)carbamoyl)-3-methylthiophen-2-yl)-2-(1-methyl-1H-pyrazol-4-yl)pyrazolo[5,1-b]thiazole-7-carboxamide] | > 3000 nM |
| Cc1cc(C(=O)NCCN(C)C2CCOCC2)sc1NC(=O)c1cnn2cc(-c3cnn(C)c3)sc12 [Example 192, 2-(1-methyl-1H-pyrazol-4-yl)-N-(3-methyl-5-((2-(methyl(tetrahydro-2H-pyran-4-yl)amino)ethyl)carbamoyl)thiophen-2-yl)pyrazolo[5,1-b]thiazole-7-carboxamide] | > 3000 nM |
| Cc1cc(C(=O)NCCN2CCC(CO)CC2)sc1NC(=O)c1cnn2cc(-c3cnn(C)c3)sc12 [Example 193, N-(5-((2-(4-(hydroxymethyl)piperidin-1-yl)ethyl)carbamoyl)-3-methylthiophen-2-yl)-2-(1-methyl-1H-pyrazol-4-yl)pyrazolo[5,1-b]thiazole-7-carboxamide] | > 3000 nM |
| Cc1cc(C(=O)NCCN2CC[C@@H](O)C2)sc1NC(=O)c1cnn2cc(-c3cnn(C)c3)sc12 [Example 194, (R)—N-(5-((2-(3-hydroxypyrrolidin-1-yl)ethyl)carbamoyl)-3-methylthiophen-2-yl)-2-(1-methyl-1H-pyrazol-4-yl)pyrazolo[5,1-b]thiazole-7-carboxamide] | > 3000 nM |
| Cc1cc(C(=O)NCCN2CC[C@H](O)C2)sc1NC(=O)c1cnn2cc(-c3cnn(C)c3)sc12 [Example 195, (S)—N-(5-((2-(3-hydroxypyrrolidin-1-yl)ethyl)carbamoyl)-3-methylthiophen-2-yl)-2-(1-methyl-1H-pyrazol-4-yl)pyrazolo[5,1-b]thiazole-7-carboxamide] | > 3000 nM |
| Cc1cc(C(=O)NCCN2CCOCC23CC3)sc1NC(=O)c1cnn2cc(-c3cnn(C)c3)sc12 [Example 197, N-(5-((2-(7-oxa-4-azaspiro[2.5]octan-4-yl)ethyl)carbamoyl)-3-methylthiophen-2-yl)-2-(1-methyl-1H-pyrazol-4-yl)pyrazolo[5,1-b]thiazole-7-carboxamide] | 613 nM |
| Cc1cc(C(=O)NCCN2CC3CCC2CC3)sc1NC(=O)c1cnn2cc(-c3cnn(C)c3)sc12 [Example 199, N-(5-((2-(2-azabicyclo[2.2.2]octan-2-yl)ethyl)carbamoyl)-3-methylthiophen-2-yl)-2-(1-methyl-1H-pyrazol-4-yl)pyrazolo[5,1-b]thiazole-7-carboxamide] | 237 nM |
| Cc1cc(C(=O)NCCN2CCCC(O)C2)sc1NC(=O)c1cnn2cc(-c3cnn(C)c3)sc12 (stereo not shown) [Example 200, N-(5-((2-(3-hydroxypiperidin-1-yl)ethyl)carbamoyl)-3-methylthiophen-2-yl)-2-(1-methyl-1H-pyrazol-4-yl)pyrazolo[5,1-b]thiazole-7-carboxamide] | > 3000 nM |
| Cc1cc(C(=O)NCCCN2CCCC2(C)C)sc1NC(=O)c1cnn2cc(-c3cnn(C)c3)sc12 [Example 201, N-(5-((3-(2,2-dimethylpyrrolidin-1-yl)propyl)carbamoyl)-3-methylthiophen-2-yl)-2-(1-methyl-1H-pyrazol-4-yl)pyrazolo[5,1-b]thiazole-7-carboxamide] | 1440 nM |
